The molecules below were run on SARS-CoV-2-S pseudotyped particles. Details: Calu-3 cells.
Type: cell-based

SMILES | Activity on viral entry in PP entry assay (in words)
C=Cc1cc(C(=O)Nc2ccc(C(=N)N)cc2)c(-c2ccc(C(=O)NCC3CC3)nc2C(=O)O)cc1OC [NCGC00522636, Avoralstat] | comparable inhibition activity to camostat
CN(C)C(=O)COC(=O)Cc1ccc(OC(=O)c2ccc(NC(=N)N)cc2)cc1 [NCGC00167526, Camostat] | high potency and efficacy
COC(=O)[C@H](Cc1cccc(C(=N)N)c1)[C@@H](C)NC(=O)c1ccc(-c2cc[n+]([O-])cc2)cc1 [NCGC00378763, Otamixaban] | efficient activity
CCOC(=O)c1ccc(OC(=O)CCCCCNC(=N)N)cc1 [NCGC00025297, Gabexate] | did not exhibit an activity
N=C(N)c1ccc2cc(OC(=O)c3ccc(N=C(N)N)cc3)ccc2c1 [NCGC00160398, Nafamostat] | high potency and efficacy
